Test systems include LOX IMVI melanoma; HOP-92 NSCLC; OVCAR-3 ovarian; NCI-H226 lung; SF-295 CNS; SK-MEL-28 melanoma; HT29 colon; MCF7 breast; K-562 leukemia; HOP-62 NSCLC.
Experiment in all cases: NCI anticancer screen, dose series, 48 h

The structures appear in SMILES notation.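 Five concentrations, 48 hours, 96-well plates. GI50 is the concentration that inhibits growth by half. TGI denotes the concentration required for complete inhibition of growth.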

On to `CN(C)CCNc1c2c(c(NCCN(C)C)c3[nH]ccc13)C(=O)c1ccccc1C2=O`, for which the GI50 in the experiment with LOX IMVI melanoma is 737 nM; with HOP-92 NSCLC it was 6.08 µM; in the experiment with OVCAR-3 ovarian, 0.639 µM; in the experiment on NCI-H226 lung it was 5.03 µM; with SF-295 CNS, 0.693 µM; with SK-MEL-28 melanoma, 3.1 µM. Also, the GI50 with HT29 colon is 465 nM; with MCF7 breast, 0.371 µM; with K-562 leukemia, 654 nM; with HOP-62 NSCLC it was 0.894 µM. Besides, the TGI was found to be 3.39 µM in the experiment with LOX IMVI melanoma; 28.5 µM in the experiment on HOP-92 NSCLC; 6.59 µM in the experiment on OVCAR-3 ovarian; 15.8 µM with NCI-H226 lung; 3.25 µM in the experiment on SF-295 CNS; 9.5 µM in the experiment with SK-MEL-28 melanoma. This compound had a TGI in the experiment on HOP-62 NSCLC of 9.27 µM.
Regarding `COc1ccc(/C(C#N)=C/c2ccccc2OC)cc1`, the GI50 is 6600 nM with LOX IMVI melanoma; 4.57 µM in the experiment on HOP-92 NSCLC; 7.22 µM in the experiment on OVCAR-3 ovarian; 17.7 µM in the experiment with NCI-H226 lung; 29.1 µM in the experiment with SF-295 CNS; 17.5 µM in the experiment with SK-MEL-28 melanoma. Moreover, the GI50 is 3950 nM in the experiment with HT29 colon, 4.3 µM in the experiment on MCF7 breast, 4110 nM in the experiment on K-562 leukemia and 19.9 µM in the experiment on HOP-62 NSCLC. The TGI in the experiment with LOX IMVI melanoma was > 100 µM; with HOP-92 NSCLC it was 70.8 µM; in the experiment with OVCAR-3 ovarian it was > 100 µM; in the experiment with NCI-H226 lung it was > 100 µM; with SF-295 CNS, > 100 µM; in the experiment on SK-MEL-28 melanoma, > 100 µM. In addition, the TGI with HT29 colon was 18.3 µM; in the experiment with MCF7 breast, > 100 µM; in the experiment with K-562 leukemia it was > 100 µM; in the experiment on HOP-62 NSCLC it was > 100 µM.
Consider `CN(C)CCCNC(CC#N)CCC#N` (configuration not stated), for which the TGI with LOX IMVI melanoma, in the experiment on HOP-92 NSCLC, in the experiment with OVCAR-3 ovarian, with NCI-H226 lung, with SF-295 CNS and in the experiment on SK-MEL-28 melanoma was > 10 µM throughout. Besides, the TGI with HT29 colon, in the experiment on MCF7 breast, in the experiment on K-562 leukemia and with HOP-62 NSCLC was > 10 µM each time.
In the case of `CC[C@@H](C(=O)O)C1CC[C@H](C)C([C@@H](C)[C@H](O)[C@H](C)C(=O)[C@H](CC)C2O[C@]3(C=C[C@@H](O)[C@]4(CC[C@@](C)(C5CC[C@](O)(CC)[C@H](C)O5)O4)O3)[C@H](C)C[C@@H]2C)O1` (some centres not stated), the GI50 was 641 nM in the experiment with LOX IMVI melanoma; 0.317 µM in the experiment with HOP-92 NSCLC; 0.0434 µM with OVCAR-3 ovarian; 1.19 µM with NCI-H226 lung; 0.261 µM with SF-295 CNS; 0.549 µM in the experiment on SK-MEL-28 melanoma. The GI50 is 293 nM in the experiment on HT29 colon, 0.11 µM in the experiment on MCF7 breast, 306 nM in the experiment on K-562 leukemia and 1.11 µM in the experiment with HOP-62 NSCLC. In addition, the TGI turned out to be 13.6 µM in the experiment with LOX IMVI melanoma; 4.93 µM in the experiment on HOP-92 NSCLC; 16.4 µM in the experiment on OVCAR-3 ovarian; 10.8 µM with NCI-H226 lung; 11.1 µM with SF-295 CNS; 1.93 µM in the experiment with SK-MEL-28 melanoma. The TGI was determined as 25.7 µM in the experiment on HT29 colon, 13.9 µM in the experiment on MCF7 breast, 15.6 µM with K-562 leukemia and 21.7 µM with HOP-62 NSCLC.
Regarding `NCCOCCOCCNc1nc(Cc2ccccc2)nc(NCCCN2CCCC2=O)n1`, the GI50 in the experiment on LOX IMVI melanoma is > 100000 nM; in the experiment on HOP-92 NSCLC, > 100 µM; in the experiment with OVCAR-3 ovarian, > 100 µM; with NCI-H226 lung, > 100 µM; with SF-295 CNS it was > 100 µM; with SK-MEL-28 melanoma, > 100 µM. Also, the GI50 in the experiment with HT29 colon is > 100000 nM; in the experiment on MCF7 breast, > 100 µM; in the experiment on K-562 leukemia it was > 100000 nM; in the experiment with HOP-62 NSCLC, > 100 µM. Also, the TGI in the experiment on LOX IMVI melanoma, in the experiment on HOP-92 NSCLC, in the experiment with OVCAR-3 ovarian, with NCI-H226 lung, in the experiment on SF-295 CNS and in the experiment with SK-MEL-28 melanoma was > 100 µM each time. Besides, the TGI with HT29 colon, in the experiment on MCF7 breast, in the experiment on K-562 leukemia and in the experiment with HOP-62 NSCLC was > 100 µM each time.
In the case of `COc1cccc(-n2ncc3c(N/N=C/c4ccc(C(=O)NCCN(C)C)cc4)ncnc32)c1`, the GI50 in the experiment on LOX IMVI melanoma was 1280 nM; in the experiment on HOP-92 NSCLC, > 25 µM; with OVCAR-3 ovarian, 3.31 µM; with NCI-H226 lung, 9.36 µM; in the experiment on SF-295 CNS, 3.85 µM; in the experiment on SK-MEL-28 melanoma, 3.5 µM. Besides, the GI50 in the experiment with HT29 colon is 814 nM; in the experiment on MCF7 breast, 3.02 µM; in the experiment on K-562 leukemia, 128 nM; in the experiment with HOP-62 NSCLC, 4.14 µM. Moreover, the TGI is 5.62 µM with LOX IMVI melanoma; > 25 µM in the experiment with HOP-92 NSCLC; 6.71 µM in the experiment on OVCAR-3 ovarian; > 22.2 µM in the experiment on NCI-H226 lung; 7.93 µM in the experiment on SF-295 CNS; 7.28 µM in the experiment with SK-MEL-28 melanoma. In addition, the TGI turned out to be 4.55 µM with HT29 colon, 6.82 µM with MCF7 breast, 6.65 µM in the experiment with K-562 leukemia and 7.81 µM in the experiment with HOP-62 NSCLC.
`N#Cc1c(N2CCCC2)[nH]c(=O)c(C(c2c(Cl)cccc2Cl)c2c(O)c(C#N)c(N3CCCC3)[nH]c2=O)c1O`: the GI50 in the experiment on LOX IMVI melanoma was 11600 nM; in the experiment with HOP-92 NSCLC it was 10.2 µM; in the experiment with OVCAR-3 ovarian it was 3.33 µM; in the experiment on NCI-H226 lung it was 10.9 µM; in the experiment on SF-295 CNS it was 18.7 µM; in the experiment on SK-MEL-28 melanoma, 5.34 µM. For the same compound, the GI50 is 15800 nM in the experiment on HT29 colon, 14.2 µM in the experiment on MCF7 breast, 27400 nM in the experiment with K-562 leukemia and 21.2 µM in the experiment on HOP-62 NSCLC. Besides, the TGI with LOX IMVI melanoma came to 37.2 µM; in the experiment with HOP-92 NSCLC it was 28.5 µM; in the experiment with OVCAR-3 ovarian, 14.3 µM; in the experiment on NCI-H226 lung, 24.4 µM; in the experiment on SF-295 CNS, 37.4 µM; in the experiment with SK-MEL-28 melanoma, 40.6 µM. Further, the TGI is 35.5 µM with HT29 colon, 49.8 µM with MCF7 breast, > 100 µM in the experiment with K-562 leukemia and 49.6 µM in the experiment on HOP-62 NSCLC.
Consider `C[C@@H]1C[C@H]2CC[C@H](O2)[C@H](C)C(=O)O[C@@H](C)C[C@@H]2CC[C@@H](O2)[C@@H](C)C(=O)O[C@H](C)C[C@H]2CC[C@H](O2)[C@H](C)C(=O)O[C@@H](C)C[C@@H]2CC[C@@H](O2)[C@@H](C)C(=O)O1`, for which the TGI in the experiment with LOX IMVI melanoma was 2.82 µM; in the experiment with HOP-92 NSCLC, 0.524 µM; with OVCAR-3 ovarian it was > 40.1 µM; in the experiment on NCI-H226 lung, > 93.5 µM; in the experiment on SF-295 CNS, 0.659 µM; in the experiment with SK-MEL-28 melanoma, > 100 µM. The TGI in the experiment on HT29 colon was 15.7 µM; with MCF7 breast, > 100 µM; with K-562 leukemia, > 33.8 µM; in the experiment on HOP-62 NSCLC, 4.78 µM.

Values taken from PubChem BioAssay (NCI).
